From patent US6025365A, “Chelerythrine and radiation combined tumor therapy” (Arch Development Corp., priority 1997, dated 2000)

Assays:
WEHI-231 OE cells [1] = test: Radiation mediated apoptosis of WEHI-231 OE cells after C2-ceramide pre-treatment; type: cell-based, murine; conditions: C2-ceramide 30 minutes prior to 8 Gy, 24 hours
Experimental: FIG. 11A-1, FIG. 11A-2, and FIG. 11A-3. Exogenous ceramide can sensitize WEHI-231 OE cells to radiation mediated apoptosis. C2-ceramide (Cer) was added to 3×10^5 WEHI-231 OE cells 30 minutes prior to treatment with 8 Gy. Apoptosis was quantitated using propidium iodide staining and FACS analysis. Percent apoptotic cells are shown in gate R2 twenty-four hours following irradiation.
(§1) For viability staining, 2.5-3.5×10^5 cells were treated with varying concentrations of C2-ceramide, irradiation, or both.
(§2) In order to address the question of whether the resistance of the OE subline was due, in part, to alterations in ceramide metabolites or targets, three studies were performed. […] Both cell lines were equally susceptible to the effects of sphingosine kinase inhibition and the resulting […] in ceramide. […] Thus the radioresistance can be attributed to the lack of sphingomyelinase activation and the subsequent decreased ceramide production following irradiation.

WEHI-231 OE cells [2] = test: Viability by PI staining and FACS, WEHI-231 OE; type: cell-based, murine; conditions: 24 hours
Experimental: (§3) FIG. 11B. WEHI-231 JM and OE cells are equally sensitive to inhibition of sphingosine kinase and exogenous ceramide. Cells were treated with increasing concentrations of C2-ceramide or DL-threo-dihydrosphingosine--apotent inhibitor of sphingosine kinase. Viability was assayed using PI staining and FACS analysis 24 hours after treatment.
as §1, §2

WEHI-231 cells = test: Reactive oxygen species by dichlorodihydrofluorescein and FACS; type: cell-based, murine; conditions: 30 μM ceramide or 10 μM chelerythrine, 15 minutes; anti-IgM 2 hours
Experimental: FIGS. 8A-8C. Exogenous ceramide and PKC inhibition induce oxidative changes in WEHI-231 cells. WEHI-231 cells (1×10^6) were treated with anti-IgM antibodies for 2 hours (FIG. 8A), 30 μM exogenous ceramide for 15 minutes (FIG. 8B) or 10 μM chelerythrine for 15 minutes (FIG. 8C). The reactive oxygen species in the cells was then measured using dichlorodihydrofluorescein (DCHF-DA) and quantitated using FACS analysis. Histogram analysis of fluorescence is plotted as LOG function.
The mechanisms by which ceramide may mediate cell death is yet unknown. […] Since changes in oxidative status induced a wide range of cellular responses including growth and apoptosis in WEHI-231 and other lymphocytes, the inhibition of PKC and a resulting accumulation of ceramide were studied for their affect on the level of reactive oxygen species within the cell using the dye dichlorodihydrofluorescein and FACS analysis. […] While non-toxic oxidation may promote cell growth, intracellular reduction may lead to the activation of cysteine proteases which are proposed mediators of apoptosis.

WEHI-231 JM cells = test: Viability by PI staining and FACS, WEHI-231 JM; type: cell-based, murine; conditions: 24 hours
Experimental: as §3, §1, §2

SQ20-B cells [3] = test: Clonogenic survival / colony formation assay; type: cell-based, human; conditions: 20 μM C2-ceramide 30 minutes prior to x-ray
Experimental: FIG. 2. Chelerythrine chloride enhanced IR-mediated cell killing through divisional death. Clonogenic survival was measured following exposure to increasing concentrations of chelerythrine and ionizing radiation. Cells were plated at cell numbers between about 500 cells/plate and about 2000 cells/plate and treated with 0 μM, 0.5 μM, or 1.0 μM chelerythrine chloride for 30 minutes prior to irradiation. After 2 weeks the colonies were scored for survival if they were composed of more than 50 cells. Results represent the mean of three individual experiments with duplicate or triplicate determinants. Error bars represent +/- the standard error of the means (SEM).
FIG. 5C. […] Closed circles represent radiation alone; closed squares represenet addition of 20 μM C2-Ceramide 30 minutes prior to x-ray.
Exponentially growing SQ20B cultures were trypsinized using 0.05% trypsin+0.02% EDTA. Cells (100 to 50,000) were plated in 100 mm tissue culture dishes. Chelerythrine or C2-ceramide was added 4 hours after plating and irradiated for 30 minutes after the addition of chelerythrine or C2-ceramide. The cells were irradiated using a GE Maxitron 250 x-ray generator operating at 250 kV and 26 mA with a dose rate of 114 cGy/min. After 12 days the cells were fixed and stained with crystal violet following standard procedures (Chmura et al., 1996a; 1996b). Colonies of >50 cells were scored as survivors.
Clonogenic survival was measured following increasing concentrations of chelerythrine chloride alone (0.5-1.5 μM), IR alone (1-9 Gy), or the combined treatment of cells with chelerythrine and IR. […] At a concentration of 500 nM, chelerythrine decreased cell survival to about 80% of untreated control cells (about 20% cell death). The combined treatment of cells with 500 nM of chelerythrine 30 minutes prior to treatment with 3 Gy of radiation decreased cell survival to about 30% of untreated cells (about 70% cell death). […] Cell shrinkage and nuclear condensation, characteristic of apoptosis, were not observed at these concentrations of chelerythrine and IR.

[4] = tested on: bcl-x WEHI-231, MG and WEHI-231 OE (JM) cells; test: Effect of protease inhibitors on chelerythrine induced apoptosis in apoptosis-resistant cell lines; type: cell-based; conditions: ZVAD 20 μM, even at doses >15 μM chelerythrine
Experimental: Using the procedures already described (Chmura, 1996; Chmura et al., 1996a; Chmura et al., 1996b), three different apoptosis-resistant cell lines were examined for their susceptibility to apoptosis induced by chelerythrine. The three cell lines used were bcl-x WEHI-231, which represents WEHI-231 cells that have been transfected with bcl-x and are highly resistant to radiation induce apoptosis, MG cells and the WEHI-231 OE (JM) cells previously described.
All three cell lines were treated with chelerythrine and x-irradiation as previously described (Chmura et al., 1996a; Chmura et al., 1996b) with the following modifications. Cells were pre-exposed to YVAD-cmk (100 μM), a protease inhibitor of the interleukin 1-b converting enzyme (ICE) subfamily or to ZVAD (20 μM), which inhibits the cpp32β family of proteases, for 30 minutes before being subjected to chelerythrine.

SQ20-B cells [5] = test: Apoptosis in SQ20-B (propidium iodide FACS, DAPI staining, DNA laddering); type: cell-based, human
Experimental: FIGS. 3A-3E. […] M1 defines the % of apoptotic cells as defined by (a) propidium iodide uptake of 1 log or more fluorescence and (b) a decrease in cell size of 50% or more. FL3-Height indicated the uptake of propidium by the cell. In FIG. 3A, M1=5%; FIG. 3B, M1=22%; FIG. 3C, M1=73%; FIG. 3D, M1=16%; FIG. 3E, M1=24%.
Cells undergoing apoptosis also shrink in size.
Cells, 5×10^5, were centrifuged at 1000 rpm and resuspended in approximately 100 μl cell culture media. The cell suspension was then mixed with 100 μl of DAPI (4',6-iamidino-2-phenylindole, Sigma D9542, 1 μg/ml in PBT (PBS+1% Triton X-100)). One drop of this mixture was placed on a microslide with a coverslip. The cells were viewed by fluorescence microscopy using an Olympus BX-40 microscope with a 100 Watt Mercury lamp, a 16 or 40 X Fluorite objective, N.A. 0.75, (Leco #1-UB527) and a UV filter cube (ex 330-385 nm, em 420 nm, wide band pass, Leco #U-M536). Images were photographed using an Optronics cooled low-light video camera (Leco #DEI-470TB) to which was attached a 2X coupler (Leco #HR200-CMT). The image was saved to a digital file at 72 dpi.
DNA degradation was assessed as previously described (Gottschalk et al., 1993; 1994). Briefly, following treatment in 100 mm plates or 24 well plates, cells were collected and lysed in 0.5 ml lysis buffer (0.6% SDS+10 mM EDTA, pH 7.0). […]

Compound | apoptotic response of irradiated cells (WEHI-231 OE cells [1]) | IC50 (WEHI-231 OE cells [2]) [nM] | reactive oxygen species (ROS) (WEHI-231 cells) | IC50 (WEHI-231 JM cells) [nM] | clonogenic survival of irradiated cultures (words) (SQ20-B cells [3]; listed as C2-Ceramide) | clonogenic survival of irradiated cultures (words) (SQ20-B cells [3]; listed as ceramide) | inhibition of chelerythrine induced apoptosis [4] | apoptosis following combined IR and chelerythrine (2.5 μM), inhibition (SQ20-B cells [5]; zVAD-fmk 20 μM) | chelerythrine induced apoptosis, inhibition (SQ20-B cells [5]; zVAD-fmk with chelerythrine)
CCCCCCCCCCCCC/C=C/[C@@H](O)[C@H](CO)NC(C)=O [C2-ceramide] | restored the apoptotic response at 24 hours | 3000 | reduced the ROS in the cells | 3000 | decreased clonogenic survival | enhanced IR induced cell killing | – | – | –
zVAD-fmk | – | – | – | – | – | – | did block chelerythrine induced apoptosis | inhibited apoptosis | blocked chelerythrine induced apoptosis
